Where “and” joins values, the source holds several entries; their conditions need not be identical. Equal values may be shown once. Calls of active or inactive are those of the source.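 Rule for the calls: active = compounds whose fitted half-maximal concentration for changing the GFP signal is at or below a set limit; inactive = the rest.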

These results are taken from PubChem BioAssay AID2740 (NMMLSC, 2010).

The test can be described thus: TOR pathway RPL19A-GFP modulators, concentration series – cell-based, S. cerevisiae, flow cytometry, MLPCN hits, dose response (AID 2740).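 Note: background is signal of the same compound in parental non-GFP s288c yeast.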 The settings on record: S. cerevisiae RPL19A-GFP strain, flow cytometry fluorescence, 3 h; at 33 µM (top of the series). Background: In flow cytometry, cells or beads pass a laser one at a time.
On to `C#CCOCCOCCOCCNc1nc(N2CCN(C(=O)CCCCCCCCCCNC(=O)[C@H](CCCCN)n3cc(CCCC(=O)O)nn3)CC2)nc(N2CCN(C(=O)CCCCCCCCCCNC(=O)[C@H](CCCN=C(N)N)n3cc(C[C@@H](C)CC)nn3)CC2)n1`, for which the GFP fluorescence, lower = active (kMESF (background-subtracted)) is 27.1 (inactive).
As for `COc1ccc2c(/C=C/c3cc[n+](C)cc3)c[nH]c2c1`, the figure is 39 (inactive); as for `O=C(O)c1ccc2c(c1)C(=O)/C(=C/c1ccccc1)C2=O`, 36.8 (inactive); as for `O=C1CC(c2ccccc2)=NN1c1nc(-c2ccccc2)cs1`, 19.4 (inactive).
As for `CC(=O)c1ccc(N2CCN(C(=O)c3ccc(Br)cc3)CC2)c(F)c1`, the GFP fluorescence, lower = active (kMESF (background-subtracted)) was 46.1 (inactive).
In the case of `CCCOc1ccc(C(=O)NNC(=S)NC(=O)c2ccco2)cc1`, the GFP fluorescence, lower = active (kMESF (background-subtracted)) was 51 (inactive).
Regarding `O=[N+]([O-])c1ccc(O)c2ncccc12`, the GFP fluorescence, lower = active (kMESF (background-subtracted)) was 25.5 (inactive) and 19.3 (inactive).
With `CCCc1nnc(NC(=O)c2c(O)c3cccc4c3n(c2=O)CCC4)s1` the figure was 14.6 (inactive); with `Cc1cc(C)nc(S/C=C/C(=O)c2ccccc2)n1`, 47.4 (inactive); with `CCOC(=O)Cn1cc(/C=C/[N+](=O)[O-])c2ccccc21`, 39.5 (inactive).
On to `COc1cc(N2C(=O)C=CC2=O)c(OC)cc1Cl`, for which the GFP fluorescence, lower = active (kMESF (background-subtracted)) was 18.8 (inactive).
For the molecule `CC(C)Oc1ccc(C(=O)/C=C2/C(=O)Nc3ccccc32)cc1`, the GFP fluorescence, lower = active (kMESF (background-subtracted)) is 29 (inactive).
As for `CCCS(=O)(=O)c1nnnn1-c1cccc(OC)c1`, the figure is 31.9 (inactive); as for `N#Cc1nccnc1S(=O)(=O)c1cccs1`, 35.5 (inactive).
With `CCCCC(=O)NC(=S)NNC(=O)CCc1ccccc1` the figure was 37.8 (inactive); with `O=C(/C=C/c1ccccc1)NC(=S)NNC(=O)Cc1cccs1`, 45.5 (inactive); with `O=C1C=CC(=O)N1c1ccc(OC(F)F)cc1`, 14.7 (inactive).
As for `Cc1c(Br)c(=O)oc2c(Br)c(O)c(O)cc12`, the figure is 38.1 (inactive); as for `C#CCOc1c(Br)cc(/C=C2/C(=O)ON=C2C)cc1OC`, 32.9 (inactive).
As to `COc1cc(NC(=O)c2cccc(C)c2)ccc1NC(=O)c1cc2ccccc2o1`, the GFP fluorescence, lower = active (kMESF (background-subtracted)) was 39.6 (inactive).
On to `C[n+]1ccc(/C=C/c2c[nH]c3ccccc23)cc1`, for which the GFP fluorescence, lower = active (kMESF (background-subtracted)) was 53.8 (inactive).
`C=CCOc1cccc(C(=O)/C=C2/C(=O)Nc3ccccc32)c1`: the GFP fluorescence, lower = active (kMESF (background-subtracted)) is 40.7 (inactive).
As for `COc1ccccc1[C@@]1(C)ON(c2ccccc2C(F)(F)F)C1=O`, the figure is 22.7 (inactive); as for `CCOC(=O)CSC1=NC(=O)/C(=C\c2ccc(Cl)cc2)S1`, 31.9 (inactive); as for `CCCCNc1c2c3c(cccc3n(C)c1=O)C(=O)c1ccccc1-2`, 39.9 (inactive).
As for `Cc1cc(C(=O)Nc2nc(-c3ccccn3)cs2)ccc1[N+](=O)[O-]`, the figure is 48.9 (inactive).
As for `Cc1c(Cc2ccccc2)c(NCCN(C)C)n2c(nc3ccccc32)c1C#N`, the figure is 46.6 (inactive); as for `Clc1ccc(N=c2ssnc2Cl)cc1`, 36.9 (inactive).
For the molecule `O=C(NNC(=S)NC(=O)C12CC3CC(CC(C3)C1)C2)c1ccncc1`, the GFP fluorescence, lower = active (kMESF (background-subtracted)) was 46.9 (inactive).
With `CN(C)/C=C/C(=O)c1ccc(-c2ccc(Cl)cc2Cl)o1` the figure was 40.9 (inactive); with `COc1ccccc1OCCCc1c(C)n[nH]c1C`, 37.6 (inactive); with `CC(Oc1cccc(Cl)c1)C(=O)Nc1nc(-c2ccccn2)cs1` (stereo not drawn), 30 (inactive).
With `Cc1ccc2[nH]cc(/C=C/c3cc[n+](C)cc3)c2c1` the figure was 38.4 (inactive); with `Nc1nc2ncc(CNc3ccc(C(=O)N[C@@H](CCC(=O)O)C(=O)O)cc3)nc2c(=O)[nH]1`, 37 (inactive).
As to `Oc1ccc2ccccc2c1/C=N/Nc1nnc(-c2ncc[nH]2)c2ccccc12`, the GFP fluorescence, lower = active (kMESF (background-subtracted)) was 4.23 (inactive).
`Cc1ccc2[nH]c(C)c(/C=C/c3cc[n+](C)cc3)c2c1`: the GFP fluorescence, lower = active (kMESF (background-subtracted)) was 37.4 (inactive).
For the molecule `CC1(C(=O)NC(=S)NNC(=O)c2ccncc2)CCCCC1`, the GFP fluorescence, lower = active (kMESF (background-subtracted)) is 39.9 (inactive).
Turning to `CC[C@]1(c2ccccc2C)ON(c2ccccc2C(F)(F)F)C1=O`, the GFP fluorescence, lower = active (kMESF (background-subtracted)) is 40 (inactive).
For `COc1ccc(-c2cc3cc(C(=O)O)ccn3c2C(=O)c2ccccc2)cc1`, the GFP fluorescence, lower = active (kMESF (background-subtracted)) is 43.5 (inactive).
As for `O=[N+]([O-])c1ccc(Sc2nc3ccccc3o2)c([N+](=O)[O-])c1`, the figure is 45.5 (inactive).
On to `CCCc1ccc(OCC(=O)NNC(=S)NC(=O)c2ccco2)cc1`, for which the GFP fluorescence, lower = active (kMESF (background-subtracted)) is 30.3 (inactive).
For the molecule `CC1=C(C)/C(=N\OS(=O)(=O)c2ccc(C)cc2)C=CC1=O`, the GFP fluorescence, lower = active (kMESF (background-subtracted)) was 16.9 (inactive).
Turning to `Cc1ccc(NC(=O)c2nc(S(=O)(=O)Cc3ccccc3)ncc2Cl)cc1`, the GFP fluorescence, lower = active (kMESF (background-subtracted)) is 43 (inactive).
On to `Cc1ccc2c(nc3s/c(=C\c4ccc(-c5ccccc5C(=O)O)o4)c(=O)n32)c1C`, for which the GFP fluorescence, lower = active (kMESF (background-subtracted)) was 53.5 (inactive).
As for `COc1ccc(OC)c(S(=O)(=O)ON2C(=O)c3ccccc3C2=O)c1`, the figure is 25.6 (inactive); as for `O=C(O)c1ccc(COc2ccccc2C=C2C(=O)c3ccccc3C2=O)cc1`, 38.9 (inactive); as for `O=C(CS(=O)c1ccccc1[N+](=O)[O-])Oc1ccc(Br)cc1` (stereo not drawn), 39.1 (inactive).
Consider `Nc1ccccc1SC(C[N+](=O)[O-])c1ccccc1` (stereo not drawn), for which the GFP fluorescence, lower = active (kMESF (background-subtracted)) was 38.1 (inactive).
With `Cc1c(NC2=C(Cl)C(=O)N(c3ccccc3)C2=O)c(=O)n(-c2ccccc2)n1C` the figure was 43.6 (inactive); with `N/C(Cc1ccc(Cl)cc1Cl)=N\OC(=O)c1ccccc1`, 28.6 (inactive); with `CCC(=O)Nc1ccc(NC(=O)c2cc3ccccc3o2)c(OC)c1`, 40.4 (inactive).
With `C[C@@]12C(=O)OC(=O)[C@]1(C)C1CCC2O1` the figure was 25.9 (inactive).
As for `CC(=O)[C@]1(O)Cc2c(O)c3c(c(O)c2[C@@H](O[C@H]2C[C@H](N)[C@H](O)[C@H](C)O2)C1)C(=O)c1ccccc1C3=O`, the figure is 42 (inactive); as for `CCc1sc(C(=O)Nc2nc(-c3ccccn3)cs2)cc1C`, 21.1 (inactive).
As to `O=C(/C=C/c1cc(Br)ccc1O)c1ccco1`, the GFP fluorescence, lower = active (kMESF (background-subtracted)) was 33.5 (inactive).
As for `CCc1ccc(OCC(=O)NNC(=S)NC(=O)C2CC2)c(Br)c1`, the GFP fluorescence, lower = active (kMESF (background-subtracted)) was 45.8 (inactive).
With `Cc1cc(/C=C2/SC(=S)N(c3cccc(Cl)c3)C2=O)c(C)n1-c1cccnc1` the figure was 42.7 (inactive).
As for `O=S(=O)(/N=C(\Sc1ccc(Cl)cc1)c1ccccc1)c1ccccc1`, the figure is 33.6 (inactive); as for `CC(C)[C@]1(c2ccc(Cl)cc2)ON(c2ccccc2C(F)(F)F)C1=O`, 40.6 (inactive); as for `O=C(OCn1ncc(Br)c(Br)c1=O)c1c(F)cccc1F`, 37.9 (inactive).
With `[O-][n+]1cccc2c(Br)cc(Br)c(O)c21` the figure was 42.9 (inactive); with `O=C(Oc1oc(-c2ccco2)nc1C=Nc1ccc(Cl)cc1)c1ccco1`, 52.3 (inactive); with `O=C(/C=C/c1ccc(Cl)c([N+](=O)[O-])c1)c1cccnc1`, 36.9 (inactive).
As for `O=C(OCn1ncc(Br)c(Br)c1=O)c1ccccc1Cl`, the GFP fluorescence, lower = active (kMESF (background-subtracted)) is 44.4 (inactive).
Consider `CS(=O)(=O)c1sc(C#N)c2c1C(=O)CC(c1ccccc1)C2` (stereo not drawn), for which the GFP fluorescence, lower = active (kMESF (background-subtracted)) is 38.5 (inactive).
With `CCOC(=O)CS(=O)(=O)c1nc(-c2ccccc2)cc(C(F)(F)F)n1` the figure was 44.1 (inactive); with `Cc1cccc(N=Nc2ccc(O)c3ncccc23)c1`, 33.3 (inactive); with `O=C(Oc1c(Cl)cc(Cl)c2cccnc12)c1cccs1`, 36.1 (inactive).
As for `O=C(Nc1ccc(NC(=O)c2cc3ccccc3o2)cc1)c1ccco1`, the figure is 39.7 (inactive).
With `Cc1[nH]n(-c2ccccc2)c(=O)c1C(c1ccccc1[N+](=O)[O-])C(C#N)C#N` (stereo not drawn) the figure was 24.7 (inactive).
`Cc1ccsc1/C=N/Nc1ncc(Cl)cc1Cl`: the GFP fluorescence, lower = active (kMESF (background-subtracted)) was 49.1 (inactive).
Take `Cc1ccc(NC(=O)c2ccc(Cl)c(N3C(=O)C=CC3=O)c2)cc1`: the GFP fluorescence, lower = active (kMESF (background-subtracted)) is 22.4 (inactive).
Turning to `CC[C@@]1(c2ccccc2OC)ON(c2ccccc2C(F)(F)F)C1=O`, the GFP fluorescence, lower = active (kMESF (background-subtracted)) was 35.9 (inactive).
